Source: article PMC8708274, “Unveiling the Membrane and Cell Wall Action of Antimicrobial Cyclic Lipopeptides: Modulation of the Spectrum of Activity” (Pharmaceutics, 2021)
Like-named read-outs stand apart in the source and are kept apart here. Positions of bridges follow the written chain, without caps; N, C: chain ends. Non-standard residues stand in square brackets, D forms with d. Residues, ends and D or L forms follow the SMILES beside them. *: point of attachment. Lauroyl = CCCCCCCCCCCC(=O)*; Decanoyl = CCCCCCCCCC(=O)*; dNle = CCCC[C@@H](N)C(=O)O; Nle = CCCC[C@H](N)C(=O)O; Octanoyl = CCCCCCCC(=O)*; Dab = NCC[C@H](N)C(=O)O; Hexanoyl = CCCCCC(=O)*

Key:
[1] = Kinetics of insertion into monolayers; type: binding, Salmonella enterica serotype Minnesota Re 595; conditions: initial pressure 32 mN·m^−1, peptide 0.48 μM, 25 min after injection, 10 mM Tris pH 7.4, 25 °C, average of three independent experiments (error < 10%)
Protocol: (§1) Monolayer studies were performed at room temperature (25 °C) on a monolayer system (NIMA Technology, Coventry, UK) by using a cylindrical PTFE (Teflon®, Wilmington, DE, USA) trough (5 cm diameter) containing a continuously stirred aqueous phase (12 mL, 10 mM Tris pH 7.4) and a Wilhelmy platinum plate connected to an electrobalance. The system was enclosed in a Plexiglass box to reduce surface contamination, and before each run, the plate and the trough were cleaned with hot water at >70 °C to avoid carryover of lipid or peptide. Monolayers of POPG, POPE/POPG (6:4), POPC, or LPS were formed by applying small drops of the lipid stock solutions in CHCl3 on the aqueous subphase with a microsyringe (Hamilton Co., Reno, NV, USA) to achieve a surface pressure of 32 mN·m^−1. After 10 min, allowing for solvent evaporation, a known aliquot of peptide was added without disturbance of the monolayer via an inlet port, and the surface pressure was continuously monitored.

[2] = Kinetics of insertion into monolayers; type: binding; conditions: 25 min after injection, 10 mM Tris pH 7.4, 25 °C, average of three independent experiments (error < 10%); for Increase in surface pressure (Δπ), POPE/POPG: POPE/POPG 6:4, initial pressure 32 mN·m^−1, peptide 0.48 μM; for Increase in surface pressure (Δπ), POPC / Increase in surface pressure (Δπ), POPG: initial pressure 32 mN·m^−1, peptide 0.48 μM
Protocol: as §1

[3] = tested on: Staphylococcus aureus ATTC 25923; type: cell-based
Protocol: (§2) The minimal peptide concentration required to prevent the growth of a given test organism was determined after incubation overnight at 37 °C and was defined as the MIC. Activity was determined in representative bacteria, Escherichia coli ATTC 25922, Pseudomonas aeruginosa ATTC 27853, and Staphylococcus aureus ATTC 25923, using the broth microdilution method. Serial-two-fold dilutions of peptide (from 0.06 to 32 μg/mL) were performed in Mueller–Hinton broth (MHB) culture medium in sterile 96-well polypropylene microtiter plates inoculated with a final concentration of 5 × 10^5 CFU·mL^−1 of bacteria in each well. Bacteria were in the pre-exponential phase. Each determination was done by triplicate. In order to be considered acceptable, the three MIC results have to differ in only in one well, and the result was always given as the higher of the three. Drug-free and microorganism-free wells were used as positive and negative controls, respectively. Bacterial growth was visually determined on the basis of turbidity.

[4] = tested on: Pseudomonas aeruginosa ATTC 27853; type: cell-based
Protocol: as §2

[5] = tested on: Escherichia coli ATTC 25922; type: cell-based
Protocol: as §2

[6] = broth microdilution, MHB, 5 × 10^5 CFU/mL, overnight 37 °C, triplicate, higher of the three
[7] = value in brackets, broth microdilution, MHB, overnight 37 °C, triplicate

Row | SMILES | Increase in surface pressure (Δπ), LPS [1] [mN·m^−1] | Increase in surface pressure (Δπ), POPE/POPG [2] [mN·m^−1] | Increase in surface pressure (Δπ), POPC [2] [mN·m^−1] | Increase in surface pressure (Δπ), POPG [2] [mN·m^−1] | MIC SA ([3]; ATTC 25923) [µM] | MIC SA [3, 6] [µg/mL] | MIC PA ([4]; ATTC 27853) [µM] | MIC PA [4, 6] [µg/mL] | MIC EC ([5]; ATTC 25922) [µM] | MIC EC [5, 6] [µg/mL] | MIC SA [3, 7] [µM] | MIC PA [4, 7] [µM]
1 | CCCCCC(=O)N[C@@H](CCN)C(=O)N[C@H](C(=O)N[C@@H](CCN)C(=O)N[C@H]1CSSC[C@H](C(N)=O)NC(=O)[C@H](CCN)NC(=O)[C@H](CCN)NC(=O)[C@H](CC(C)C)NC(=O)[C@@H](Cc2ccccc2)NC(=O)[C@H](CCN)NC1=O)[C@@H](C)O [spB-1] (Hexanoyl-[Dab]T[Dab]C[Dab][dF]L[Dab][Dab][dC]-NH2; disulfide 4-10) | 12.1 | 4.6 | 0.9 | 5.7 | > 27 | > 32 | > 27 | > 32 | > 27 | > 32 | – | –
2 | CCCCCCCCCC(=O)N[C@@H](CCN)C(=O)N[C@H](C(=O)N[C@@H](CCN)C(=O)N[C@H]1CSSC[C@H](C(N)=O)NC(=O)[C@H](CCN)NC(=O)[C@H](CCN)NC(=O)[C@H](CC(C)C)NC(=O)[C@@H](CC(C)C)NC(=O)[C@H](CCN)NC1=O)[C@@H](C)O [spE-3] (Decanoyl-[Dab]T[Dab]C[Dab][dL]L[Dab][Dab][dC]-NH2; disulfide 4-10) | 10.0 | 7.9 | 1.3 | 5.7 | 6.7 | 8 | 1.7 | 2 | 6.7 | 8 | – | –
3 | CCCCCCCC(=O)N[C@@H](CCN)C(=O)N[C@H](C(=O)N[C@@H](CCN)C(=O)N[C@H]1CSSC[C@H](C(N)=O)NC(=O)[C@H](CCN)NC(=O)[C@H](CCN)NC(=O)[C@H](CC(C)C)NC(=O)[C@@H](Cc2ccccc2)NC(=O)[C@H](CCN)NC1=O)[C@@H](C)O [spB-2] (Octanoyl-[Dab]T[Dab]C[Dab][dF]L[Dab][Dab][dC]-NH2; disulfide 4-10) | 12.6 | 5.5 | 1.8 | 7.0 | 26 | > 32 | 6.6 | 8 | 13 | 16 | – | –
4 | CCCCCCCCCC(=O)N[C@@H](CCN)C(=O)N[C@H](C(=O)N[C@@H](CCN)C(=O)N[C@H]1CSSC[C@H](C(N)=O)NC(=O)[C@H](CCN)NC(=O)[C@H](CCN)NC(=O)[C@H](CCCC)NC(=O)[C@@H](CCCC)NC(=O)[C@H](CCN)NC1=O)[C@@H](C)O [spE-7] (Decanoyl-[Dab]T[Dab]C[Dab][dNle][Nle][Dab][Dab][dC]-NH2; disulfide 4-10) | 14.2 | 6.8 | 1.4 | 8.2 | – | 8 | – | 2 | 1.7 | 2 | 6.7 | 1.7
5 | CCCCCCCC(=O)N[C@@H](CCN)C(=O)N[C@H](C(=O)N[C@@H](CCN)C(=O)N[C@H]1CSSC[C@H](C(N)=O)NC(=O)[C@H](CCN)NC(=O)[C@H](CCN)NC(=O)[C@H](CC(C)C)NC(=O)[C@@H](CC(C)C)NC(=O)[C@H](CCN)NC1=O)[C@@H](C)O [spE-2] (Octanoyl-[Dab]T[Dab]C[Dab][dL]L[Dab][Dab][dC]-NH2; disulfide 4-10) | 9.5 | 6.4 | 0.6 | 4.3 | > 27 | > 32 | 3.4 | 4 | 14 | 16 | – | –
6 | CCCCCCCCCCCC(=O)N[C@@H](CCN)C(=O)N[C@H](C(=O)N[C@@H](CCN)C(=O)N[C@H]1CSSC[C@H](C(N)=O)NC(=O)[C@H](CCN)NC(=O)[C@H](CCCNC(=N)N)NC(=O)[C@H](CCCC)NC(=O)[C@@H](Cc2ccccc2)NC(=O)[C@H](CCN)NC1=O)[C@@H](C)O [spB-9] (Lauroyl-[Dab]T[Dab]C[Dab][dF][Nle]R[Dab][dC]-NH2; disulfide 4-10) | 11.1 | 6.0 | 2.2 | 3.4 | 1.5 | 2 | 3.0 | 4 | 3.0 | 4 | – | –
7 | CCCCCCCCCCCC(=O)N[C@@H](CCN)C(=O)N[C@H](C(=O)N[C@@H](CCN)C(=O)N[C@H]1CSSC[C@H](C(N)=O)NC(=O)[C@H](CCN)NC(=O)[C@H](CCN)NC(=O)[C@H](CC(C)C)NC(=O)[C@@H](CC(C)C)NC(=O)[C@H](CCN)NC1=O)[C@@H](C)O [spE-4] (Lauroyl-[Dab]T[Dab]C[Dab][dL]L[Dab][Dab][dC]-NH2; disulfide 4-10) | 11.4 | 9.1 | 2.1 | 5.8 | 6.5 | 8 | 0.81 | 1 | 6.5 | 8 | – | –
8 | CCCCCCCCCCCC(=O)N[C@@H](CCN)C(=O)N[C@H](C(=O)N[C@@H](CCN)C(=O)N[C@H]1CSSC[C@H](C(N)=O)NC(=O)[C@H](CCN)NC(=O)[C@H](CCN)NC(=O)[C@H](CCCC)NC(=O)[C@@H](CCCC)NC(=O)[C@H](CCN)NC1=O)[C@@H](C)O [spE-8] (Lauroyl-[Dab]T[Dab]C[Dab][dNle][Nle][Dab][Dab][dC]-NH2; disulfide 4-10) | 12.5 | 9.8 | 1.3 | 7.4 | 3.3 | 4 | 3.3 | 4 | 3.3 | 4 | – | –
9 | CCCCCCCC(=O)N[C@@H](CCN)C(=O)N[C@H](C(=O)N[C@@H](CCN)C(=O)N[C@H]1CSSC[C@H](C(N)=O)NC(=O)[C@H](CCN)NC(=O)[C@H](CCN)NC(=O)[C@H](CCCC)NC(=O)[C@@H](Cc2ccccc2)NC(=O)[C@H](CCN)NC1=O)[C@@H](C)O [spB-5] (Octanoyl-[Dab]T[Dab]C[Dab][dF][Nle][Dab][Dab][dC]-NH2; disulfide 4-10) | 10.6 | 6.5 | 0.8 | 7.3 | > 26 | > 32 | 3.3 | 4 | 1.7 | 2 | – | –
